Measured values published in ChEMBL document CHEMBL6178016, “Design, Synthesis, and Biological Evaluation of New PDE4 Inhibitors for the Treatment of Pressure Ulcers” (J Med Chem, 2025).
Activity calls are given as the source filed them. No cut-off for these calls is given here.

Columns and labels:
[1] = target: High affinity cAMP-specific and IBMX-insensitive 3',5'-cyclic phosphodiesterase 8A (Homo sapiens, UniProt O60658); assay: Inhibition of PDE8A (unknown origin)
[2] = tested on: Rattus norvegicus; assay: Antiinflammatory activity against male Sprague-Dawley rat pressure ulcer model assessed as appearance of thinner epidermal layer at 0.625 to 2.5% administered as ointment by Masson staining based analysis; type: functional, organism-based
[3] = tested on: RAW264.7; assay: Antiinflammatory activity against mouse RAW264.7 cells assessed as inhibition of LPS-induced NO release preincubated for 2 hrs followed by LPS stimulation and measured after 4 hrs by RT-PCR analysis; type: functional, cell-based
[4] = target: cGMP-dependent 3',5'-cyclic phosphodiesterase (Homo sapiens, UniProt O00408); assay: Inhibition of PDE2A (unknown origin)
[5] = tested on: Rattus norvegicus; assay: Antiinflammatory activity against male Sprague-Dawley rat pressure ulcer model assessed as increase in number of fibroblasts at 0.625 to 2.5% administered as ointment by H and E staining based analysis; type: functional, organism-based
[6] = Toxicity in male Sprague-Dawley rat assessed as pathological changes in kidney by H and E staining based analysis; type: tissue-based; details: in vivo
[7] = Acute toxicity in male Kunming mouse assessed as effect on pathological changes in spleen at 500 to 4000 mg/kg measured after 14 days by H and E staining based analysis; type: organism-based; details: in vivo, 336 h, dose 500-4000 mg/kg, time 14 day
[8] = Acute toxicity in female Kunming mouse assessed as effect on weight at 500 to 4000 mg/kg measured after 14 days; type: organism-based; details: in vivo, 336 h, dose 500-4000 mg/kg, time 14 day
[9] = target: Cytochrome P450 2D6 (Homo sapiens, UniProt P10635); assay: Inhibition of human CYP2D6; type: ADME
[10] = tested on: Rattus norvegicus; assay: Antiinflammatory activity against male Sprague-Dawley rat pressure ulcer model assessed as reduction in IL6 mRNA expression in skin at 1.25% administered as ointment by qRT-PCR analysis; type: functional, organism-based
[11] = target: Cytochrome P450 2C9 (Homo sapiens, UniProt P11712); assay: Inhibition of human CYP2C9; type: ADME
[12] = Acute toxicity in female Kunming mouse assessed as effect on pathological changes in liver at 500 to 4000 mg/kg measured after 14 days by H and E staining based analysis; type: organism-based; details: in vivo, 336 h, dose 500-4000 mg/kg, time 14 day
[13] = tested on: Rattus norvegicus; assay: Antiinflammatory activity against male Sprague-Dawley rat pressure ulcer model assessed as wound healing rate at 0.625% administration as ointment measured after 7 days (reference value: 70%); type: functional; details: time 7 day
[14] = Acute toxicity in female Kunming mouse assessed as effect on pathological changes in lung at 500 to 4000 mg/kg measured after 14 days by H and E staining based analysis; type: organism-based; details: in vivo, 336 h, dose 500-4000 mg/kg, time 14 day
[15] = tested on: Enterococcus faecalis; assay: Antibacterial activity against Enterococcus faecalis BNCC296862 assessed as reduction in bacterial colonies growth at 512 ug/ml measured after 24 hrs by agar plate method; type: functional, organism-based; details: dose 512.0 µg/ml
[16] = Acute toxicity in female Kunming mouse assessed as effect on pathological changes in heart at 500 to 4000 mg/kg measured after 14 days by H and E staining based analysis; type: organism-based; details: in vivo, 336 h, dose 500-4000 mg/kg, time 14 day
[17] = Acute toxicity in male Kunming mouse assessed as effect on weight at 500 to 4000 mg/kg measured after 14 days; type: organism-based; details: in vivo, 336 h, dose 500-4000 mg/kg, time 14 day
[18] = Tmax in Sprague-Dawley rat at 10 mg/kg, po; type: ADME, organism-based; details: in vivo
[19] = AUC (0 to t) in Sprague-Dawley rat at 5 mg/kg, iv; type: ADME, organism-based; details: in vivo
[20] = tested on: Rattus norvegicus; assay: Antiinflammatory activity against male Sprague-Dawley rat pressure ulcer model assessed as appearance of thinner epidermal layer at 0.625 to 2.5% administered as ointment by H and E staining based analysis; type: functional, organism-based
[21] = tested on: RAW264.7; assay: Cytotoxicity against mouse RAW264.7 cells measured after 24 hrs by CCK-8 method; type: functional
[22] = target: Cytochrome P450 3A4 (Homo sapiens, UniProt P08684); assay: Inhibition of human CYP3A4; type: ADME
[23] = Acute toxicity in female Kunming mouse assessed as effect on pathological changes in spleen at 500 to 4000 mg/kg measured after 14 days by H and E staining based analysis; type: organism-based; details: in vivo, 336 h, dose 500-4000 mg/kg, time 14 day
[24] = Toxicity in male Sprague-Dawley rat assessed as pathological changes in liver by H and E staining based analysis; type: tissue-based; details: in vivo
[25] = AUC (0 to infinity) in Sprague-Dawley rat at 10 mg/kg, po; type: ADME, organism-based; details: in vivo
[26] = Apparent volume of distribution in Sprague-Dawley rat at 5 mg/kg, iv; type: ADME, organism-based; details: in vivo, read-out: Vz
[27] = target: Cone cGMP-specific 3',5'-cyclic phosphodiesterase subunit alpha' (Homo sapiens, UniProt P51160); assay: Inhibition of PDE6C (unknown origin)
[28] = target: High affinity 3',5'-cyclic-AMP phosphodiesterase 7A (Homo sapiens, UniProt Q13946); assay: Inhibition of PDE7A (unknown origin)
[29] = tested on: Mus musculus; assay: Antiallodynic activity in female C57/BL mouse assessed as increase in response latency at 60 mg/kg, ip measured after 3 to 7 days by hot plate method; type: functional, organism-based; details: time 3-7 day
[30] = tested on: Rattus norvegicus; assay: Antiinflammatory activity against male Sprague-Dawley rat pressure ulcer model assessed as wound healing rate at 2.5% administration as ointment measured after 7 days (reference value: 70%); type: functional; details: time 7 day
[31] = tested on: Rattus norvegicus; assay: Antiinflammatory activity against male Sprague-Dawley rat pressure ulcer model assessed as appearance of orderly arranged cells at 0.625 to 2.5% administered as ointment by H and E staining based analysis; type: functional, organism-based
[32] = Half life in Sprague-Dawley rat at 10 mg/kg, po; type: ADME, organism-based; details: in vivo
[33] = tested on: HUVEC; assay: Inhibition of cell migration in HUVEC cells; type: functional, cell-based; details: Homo sapiens, dose 5-20 µM
[34] = tested on: RAW264.7; assay: Antiinflammatory activity against LPS induced mouse RAW264.7 cells assessed as increase in CREB phosphorylation expression at 5 to 20 uM by immunofluorescence analysis; type: functional, cell-based; details: dose 5-20 µM
[35] = tested on: RAW264.7; assay: Cytotoxicity against mouse RAW264.7 cells at 10 uM measured after 24 hrs by CCK-8 method; type: functional, cell-based
[36] = target: High affinity cGMP-specific 3',5'-cyclic phosphodiesterase 9A (Homo sapiens, UniProt O76083); assay: Inhibition of PDE9A (unknown origin)
[37] = Clearance in Sprague-Dawley rat at 5 mg/kg, iv; type: ADME, organism-based; details: in vivo
[38] = target: cAMP and cAMP-inhibited cGMP 3',5'-cyclic phosphodiesterase 10A (Homo sapiens, UniProt Q9Y233); assay: Inhibition of PDE10A (unknown origin)
[39] = Cmax in Sprague-Dawley rat at 10 mg/kg, po; type: ADME, organism-based; details: in vivo
[40] = tested on: Rattus norvegicus; assay: Antiinflammatory activity against male Sprague-Dawley rat pressure ulcer model assessed as increase in number of fibroblasts at 0.625 to 2.5% administered as ointment by Masson staining based analysis; type: functional, organism-based
[41] = Acute toxicity in male Kunming mouse assessed as effect on pathological changes in kidney at 500 to 4000 mg/kg measured after 14 days by H and E staining based analysis; type: organism-based; details: in vivo, 336 h, dose 500-4000 mg/kg, time 14 day
[42] = C0 in Sprague-Dawley rat at 5 mg/kg, iv; type: ADME, organism-based; details: in vivo
[43] = tested on: Rattus norvegicus; assay: Antiinflammatory activity against male Sprague-Dawley rat pressure ulcer model assessed as wound healing rate at 1.25% administration as ointment measured after 7 days (reference value: 70%); type: functional; details: time 7 day

High affinity 3',5'-cyclic-AMP phosphodiesterase 7A, sequence (Q13946 whole entry): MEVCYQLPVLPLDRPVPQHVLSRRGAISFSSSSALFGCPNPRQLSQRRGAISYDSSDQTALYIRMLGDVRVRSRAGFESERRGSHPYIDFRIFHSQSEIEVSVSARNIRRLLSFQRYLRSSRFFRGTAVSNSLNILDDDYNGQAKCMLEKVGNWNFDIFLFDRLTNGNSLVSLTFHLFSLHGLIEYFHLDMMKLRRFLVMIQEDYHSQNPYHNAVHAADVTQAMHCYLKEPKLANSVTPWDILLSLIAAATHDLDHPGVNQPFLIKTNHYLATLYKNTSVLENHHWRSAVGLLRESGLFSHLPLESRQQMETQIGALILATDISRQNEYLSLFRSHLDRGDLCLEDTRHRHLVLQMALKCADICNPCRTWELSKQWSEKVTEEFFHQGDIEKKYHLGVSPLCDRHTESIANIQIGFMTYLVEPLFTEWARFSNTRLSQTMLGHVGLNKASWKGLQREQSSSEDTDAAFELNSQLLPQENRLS
Cytochrome P450 2C9, sequence (P11712 whole entry): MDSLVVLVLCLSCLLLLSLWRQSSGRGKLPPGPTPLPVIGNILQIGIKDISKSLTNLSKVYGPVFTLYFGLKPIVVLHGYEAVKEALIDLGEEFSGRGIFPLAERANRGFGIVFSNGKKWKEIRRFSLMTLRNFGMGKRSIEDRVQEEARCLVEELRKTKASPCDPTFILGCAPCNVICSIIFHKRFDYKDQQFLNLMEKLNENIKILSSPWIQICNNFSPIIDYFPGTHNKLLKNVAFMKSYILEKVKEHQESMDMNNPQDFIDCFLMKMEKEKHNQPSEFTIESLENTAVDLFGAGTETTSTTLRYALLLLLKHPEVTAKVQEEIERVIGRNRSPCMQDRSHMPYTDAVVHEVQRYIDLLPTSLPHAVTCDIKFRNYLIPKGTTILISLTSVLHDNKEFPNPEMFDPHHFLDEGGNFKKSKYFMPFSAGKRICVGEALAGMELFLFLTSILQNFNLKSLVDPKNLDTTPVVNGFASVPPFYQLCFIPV
Cone cGMP-specific 3',5'-cyclic phosphodiesterase subunit alpha', sequence (P51160 whole entry): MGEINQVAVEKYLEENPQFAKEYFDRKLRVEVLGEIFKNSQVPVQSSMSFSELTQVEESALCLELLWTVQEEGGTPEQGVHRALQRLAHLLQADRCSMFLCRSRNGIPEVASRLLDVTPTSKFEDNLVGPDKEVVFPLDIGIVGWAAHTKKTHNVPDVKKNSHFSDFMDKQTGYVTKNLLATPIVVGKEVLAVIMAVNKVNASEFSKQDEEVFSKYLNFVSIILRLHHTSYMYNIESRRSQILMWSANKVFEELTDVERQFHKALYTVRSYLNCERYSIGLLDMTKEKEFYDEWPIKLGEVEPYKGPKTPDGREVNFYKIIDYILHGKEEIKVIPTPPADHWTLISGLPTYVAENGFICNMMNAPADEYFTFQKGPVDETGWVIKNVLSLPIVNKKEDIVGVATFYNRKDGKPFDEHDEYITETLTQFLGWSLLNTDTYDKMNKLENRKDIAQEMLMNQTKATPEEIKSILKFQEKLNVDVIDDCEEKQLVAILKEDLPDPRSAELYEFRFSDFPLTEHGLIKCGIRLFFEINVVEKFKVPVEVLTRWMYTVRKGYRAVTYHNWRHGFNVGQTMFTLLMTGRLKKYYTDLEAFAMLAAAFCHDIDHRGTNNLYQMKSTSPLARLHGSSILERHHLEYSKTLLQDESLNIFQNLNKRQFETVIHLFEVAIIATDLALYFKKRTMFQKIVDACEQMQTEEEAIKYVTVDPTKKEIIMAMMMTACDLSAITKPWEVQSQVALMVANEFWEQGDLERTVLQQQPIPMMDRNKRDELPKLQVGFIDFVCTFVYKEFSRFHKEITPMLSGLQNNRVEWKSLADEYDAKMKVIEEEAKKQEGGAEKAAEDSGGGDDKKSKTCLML
High affinity cAMP-specific and IBMX-insensitive 3',5'-cyclic phosphodiesterase 8A, sequence (O60658 whole entry): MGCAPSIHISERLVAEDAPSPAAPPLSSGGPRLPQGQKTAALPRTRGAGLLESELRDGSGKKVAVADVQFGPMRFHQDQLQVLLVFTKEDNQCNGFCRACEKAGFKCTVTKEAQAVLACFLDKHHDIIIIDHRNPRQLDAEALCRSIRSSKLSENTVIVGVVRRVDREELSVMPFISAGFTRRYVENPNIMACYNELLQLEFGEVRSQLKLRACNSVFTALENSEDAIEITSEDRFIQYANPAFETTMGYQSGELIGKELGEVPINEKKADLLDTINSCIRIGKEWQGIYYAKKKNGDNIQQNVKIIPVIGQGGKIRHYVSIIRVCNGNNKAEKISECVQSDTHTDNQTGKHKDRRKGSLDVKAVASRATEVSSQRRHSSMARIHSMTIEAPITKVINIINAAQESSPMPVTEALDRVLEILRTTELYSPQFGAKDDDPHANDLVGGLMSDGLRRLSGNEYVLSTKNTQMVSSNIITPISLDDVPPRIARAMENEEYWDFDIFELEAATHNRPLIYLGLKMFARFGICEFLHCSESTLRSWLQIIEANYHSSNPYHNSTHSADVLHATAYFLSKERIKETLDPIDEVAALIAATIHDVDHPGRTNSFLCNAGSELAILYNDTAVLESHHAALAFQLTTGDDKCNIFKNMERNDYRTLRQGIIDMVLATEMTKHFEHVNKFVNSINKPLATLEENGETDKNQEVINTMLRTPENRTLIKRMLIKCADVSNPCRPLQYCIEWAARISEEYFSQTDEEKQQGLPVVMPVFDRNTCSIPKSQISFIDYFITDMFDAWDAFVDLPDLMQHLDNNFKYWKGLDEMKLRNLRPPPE
cAMP and cAMP-inhibited cGMP 3',5'-cyclic phosphodiesterase 10A, sequence (Q9Y233 whole entry): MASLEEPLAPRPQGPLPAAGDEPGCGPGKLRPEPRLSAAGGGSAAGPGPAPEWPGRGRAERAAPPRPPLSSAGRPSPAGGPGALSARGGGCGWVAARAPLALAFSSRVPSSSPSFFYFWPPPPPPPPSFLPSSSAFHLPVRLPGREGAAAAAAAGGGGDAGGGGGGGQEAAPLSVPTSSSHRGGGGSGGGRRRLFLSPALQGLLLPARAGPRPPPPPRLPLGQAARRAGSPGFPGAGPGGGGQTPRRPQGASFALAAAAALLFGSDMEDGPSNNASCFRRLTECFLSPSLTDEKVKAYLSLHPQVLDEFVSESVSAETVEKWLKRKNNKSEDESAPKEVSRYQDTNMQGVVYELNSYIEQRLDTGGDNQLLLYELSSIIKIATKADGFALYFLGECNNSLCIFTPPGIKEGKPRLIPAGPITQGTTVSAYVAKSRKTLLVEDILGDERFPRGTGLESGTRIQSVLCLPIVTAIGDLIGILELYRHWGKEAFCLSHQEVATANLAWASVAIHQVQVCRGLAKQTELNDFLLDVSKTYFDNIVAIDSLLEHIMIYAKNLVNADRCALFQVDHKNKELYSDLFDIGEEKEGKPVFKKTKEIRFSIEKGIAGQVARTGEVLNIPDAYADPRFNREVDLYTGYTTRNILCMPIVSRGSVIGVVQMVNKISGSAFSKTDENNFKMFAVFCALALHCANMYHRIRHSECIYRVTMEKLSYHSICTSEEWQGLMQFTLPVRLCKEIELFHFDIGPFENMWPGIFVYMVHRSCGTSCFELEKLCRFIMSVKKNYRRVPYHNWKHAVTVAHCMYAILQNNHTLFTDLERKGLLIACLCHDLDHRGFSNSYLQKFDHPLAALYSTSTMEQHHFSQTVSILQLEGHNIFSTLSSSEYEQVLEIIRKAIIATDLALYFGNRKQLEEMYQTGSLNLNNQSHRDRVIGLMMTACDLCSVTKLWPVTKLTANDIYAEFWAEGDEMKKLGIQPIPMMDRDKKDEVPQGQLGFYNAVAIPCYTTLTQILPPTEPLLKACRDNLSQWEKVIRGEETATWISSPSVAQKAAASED
Cytochrome P450 3A4, sequence (P08684 whole entry): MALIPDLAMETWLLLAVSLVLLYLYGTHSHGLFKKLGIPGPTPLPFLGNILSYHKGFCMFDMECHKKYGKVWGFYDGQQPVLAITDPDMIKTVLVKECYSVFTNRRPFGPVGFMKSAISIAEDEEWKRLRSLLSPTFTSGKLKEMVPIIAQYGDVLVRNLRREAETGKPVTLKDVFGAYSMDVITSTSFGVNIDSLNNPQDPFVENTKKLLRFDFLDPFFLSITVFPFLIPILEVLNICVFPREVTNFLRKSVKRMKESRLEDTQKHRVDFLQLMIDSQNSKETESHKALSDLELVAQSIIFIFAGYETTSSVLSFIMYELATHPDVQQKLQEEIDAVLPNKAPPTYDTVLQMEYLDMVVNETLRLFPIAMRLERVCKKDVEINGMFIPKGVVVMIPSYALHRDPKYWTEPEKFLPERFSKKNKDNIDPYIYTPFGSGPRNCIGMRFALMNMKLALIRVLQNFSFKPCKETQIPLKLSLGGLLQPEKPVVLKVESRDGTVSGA
High affinity cGMP-specific 3',5'-cyclic phosphodiesterase 9A, sequence (O76083 whole entry): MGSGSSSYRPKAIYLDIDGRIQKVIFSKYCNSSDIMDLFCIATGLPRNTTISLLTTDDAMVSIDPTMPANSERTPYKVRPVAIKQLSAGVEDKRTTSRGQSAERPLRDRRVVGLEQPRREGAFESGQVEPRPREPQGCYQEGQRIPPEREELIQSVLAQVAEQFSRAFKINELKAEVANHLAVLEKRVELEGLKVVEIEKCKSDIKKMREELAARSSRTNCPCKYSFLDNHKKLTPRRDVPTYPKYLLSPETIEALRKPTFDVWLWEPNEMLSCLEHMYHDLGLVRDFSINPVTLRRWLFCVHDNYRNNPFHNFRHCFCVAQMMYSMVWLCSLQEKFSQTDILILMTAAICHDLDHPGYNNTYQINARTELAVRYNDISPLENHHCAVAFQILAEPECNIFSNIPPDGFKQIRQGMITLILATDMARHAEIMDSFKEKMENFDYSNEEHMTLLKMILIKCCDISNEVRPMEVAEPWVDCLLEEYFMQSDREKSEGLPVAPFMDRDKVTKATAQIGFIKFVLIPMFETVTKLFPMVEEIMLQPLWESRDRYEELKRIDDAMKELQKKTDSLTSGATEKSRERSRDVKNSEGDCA

SMILES: Cn1c(=O)c2c(ncn2CCC(=O)NNC(=O)c2cc3nccc(-c4ccc(OC(F)F)c(OCC5CC5)c4)n3n2)n(C)c1=O
- IC50 [1]: 1.72 µM
- Activity [2]: Active
- IC50 [3]: 2.32 µM
- IC50 [4]: > 50 µM
- Activity [5]: Active
- Activity [6]: Non-toxic
- Activity [7]: Non-toxic
- Activity [8]: Non-toxic
- IC50 [9]: > 50 µM
- Activity [10]: Active
- IC50 [11]: 24.7 µM
- Activity [12]: Non-toxic
- Activity [13]: 78%
- Activity [14]: Non-toxic
- Activity [15]: Active
- Activity [16]: Non-toxic
- Activity [17]: Non-toxic
- Tmax [18]: 15 min
- AUC(0-t) [19]: 235 ng·h/mL
- Activity [20]: Active
- CC50 [21]: > 90 µM
- IC50 [22]: > 50 µM
- Activity [23]: Non-toxic
- Activity [24]: Non-toxic
- AUC(0-inf) [25]: 26.8 ng·h/mL
- Vd [26]: 8.79 L/kg
- IC50 [27]: > 50 µM
- IC50 [28]: 15.1 µM
- Activity [29]: Active
- Activity [30]: 81%
- Activity [31]: Active
- half-life [32]: 84 min
- inhibition [33]: Dose-dependent-effect
- Activity [34]: Active
- Activity [35]: inactive
- IC50 [36]: > 50 µM
- clearance [37]: 358 mL/min/kg
- IC50 [38]: 1.12 µM
- Cmax [39]: 14.4 ng/mL
- Activity [40]: Active
- Activity [41]: Non-toxic
- C0 [42]: 1140 ng/mL
- Activity [43]: 93%
